According to patent publication US7960164B2, “Selective growth medium for Listeria spp” (Paradigm Diagnostics, Inc., priority 2004, dated 2011):

How the values were obtained:
[1] = test system: Bacillus spp.; assay: Inhibition of Bacillus spp. by acriflavin; format: cell-based
[2] = test system: L. monocytogenes; assay: Effect of acriflavin on hemolytic activity of L. monocytogenes; format: cell-based

Substance: Acriflavin
- Inhibition of Bacillus spp. [1]: consistently inhibits all of the Bacillus spp.
- Effect on hemolytic activity of L. monocytogenes [2]: inhibits the hemolytic activity of L. monocytogenes
